Assay results reported in the NIST ThermoML archive (doi:10.1021/je400472v).

Assay: mean ionic activity coefficient (dimensionless); mn = molality of the nth substance listed, in mol/kg
Conditions: 101 kPa, Liquid

[Cl-].[Cl-].[Sr+2] [strontium chloride] + O
Conditions	mean ionic activity coefficient
283.15 K, m1 = 0.01	0.732
283.15 K, m1 = 0.02	0.668
283.15 K, m1 = 0.05	0.58
283.15 K, m1 = 0.1	0.519
283.15 K, m1 = 0.2	0.47
283.15 K, m1 = 0.3	0.45
293.15 K, m1 = 0.01	0.728
293.15 K, m1 = 0.02	0.663
293.15 K, m1 = 0.05	0.575
293.15 K, m1 = 0.1	0.513
293.15 K, m1 = 0.2	0.464
293.15 K, m1 = 0.3	0.444
298.15 K, m1 = 0.01	0.726
298.15 K, m1 = 0.02	0.661
298.15 K, m1 = 0.05	0.571
298.15 K, m1 = 0.1	0.509
298.15 K, m1 = 0.2	0.459
298.15 K, m1 = 0.3	0.439
298.15 K, m1 = 0.4	0.43
298.15 K, m1 = 0.5	0.428
298.15 K, m1 = 0.6	0.43
298.15 K, m1 = 0.7	0.435
298.15 K, m1 = 0.8	0.442
298.15 K, m1 = 0.9	0.451
298.15 K, m1 = 1	0.462
298.15 K, m1 = 1.2	0.489
298.15 K, m1 = 1.4	0.522
298.15 K, m1 = 1.6	0.562
298.15 K, m1 = 1.8	0.609
298.15 K, m1 = 2	0.665
298.15 K, m1 = 2.5	0.849
298.15 K, m1 = 3	1.12
298.15 K, m1 = 3.5	1.524
298.15 K, m1 = 3.52	1.544
303.15 K, m1 = 0.01	0.724
303.15 K, m1 = 0.02	0.658
303.15 K, m1 = 0.05	0.569
303.15 K, m1 = 0.1	0.507
303.15 K, m1 = 0.2	0.457
303.15 K, m1 = 0.3	0.437
313.15 K, m1 = 0.01	0.72
313.15 K, m1 = 0.02	0.653
313.15 K, m1 = 0.05	0.563
313.15 K, m1 = 0.1	0.5
313.15 K, m1 = 0.2	0.45
313.15 K, m1 = 0.3	0.429
323.15 K, m1 = 0.01	0.715
323.15 K, m1 = 0.02	0.648
323.15 K, m1 = 0.05	0.556
323.15 K, m1 = 0.1	0.493
323.15 K, m1 = 0.2	0.442
323.15 K, m1 = 0.3	0.421
333.15 K, m1 = 0.01	0.71
333.15 K, m1 = 0.02	0.642
333.15 K, m1 = 0.05	0.549
333.15 K, m1 = 0.1	0.485
333.15 K, m1 = 0.2	0.434
333.15 K, m1 = 0.3	0.413
